In the NIST ThermoML archive (doi:10.1016/j.jct.2006.09.014):
Values joined by “and” are separate entries in the source; they are usually repeats but may differ in a detail not shown here. Equal values may be shown once. ± gives the expanded uncertainty stated by the source.

Conditions: Liquid; for mass density: Bellows volumetry; for vapor or sublimation pressure: Closed cell (Static) method

CCCC [butane]
Conditions	mass density [kg/m3]
280 K, 145 kPa	594.1 ± 0.9
280 K, 168.4 kPa	594.15 ± 0.9
280 K, 191.6 kPa	594.23 ± 0.9
280 K, 215 kPa	594.24 ± 0.9
280 K, 238.3 kPa	594.32 ± 0.9
280 K, 261.7 kPa	594.34 ± 0.9
280 K, 285 kPa	594.4 ± 0.9
300 K, 271.4 kPa	571.6 ± 0.86
300 K, 294.8 kPa	571.61 ± 0.86
300 K, 318.1 kPa	571.67 ± 0.98
300 K, 341.4 kPa	571.69 ± 0.86
300 K, 364.8 kPa	571.72 ± 0.86
300 K, 388.1 kPa	571.76 ± 0.86
300 K, 411.5 kPa	571.8 ± 0.86
320 K, 469.7 kPa	547.03 ± 0.82
320 K, 493 kPa	547.12 ± 0.91
320 K, 516.3 kPa	547.15 ± 0.88
320 K, 539.6 kPa	547.22 ± 0.82
320 K, 563 kPa	547.25 ± 0.82
320 K, 586.3 kPa	547.25 ± 0.85
320 K, 609.6 kPa	547.3 ± 0.82
340 K, 763.1 kPa	520.53 ± 0.78
340 K, 786.4 kPa	520.62 ± 0.81
340 K, 809.7 kPa	520.68 ± 0.81
340 K, 833 kPa	520.72 ± 0.8
340 K, 856.3 kPa	520.82 ± 0.78
340 K, 879.7 kPa	520.9 ± 0.78
340 K, 903 kPa	520.96 ± 0.78
360 K, 1176.4 kPa	490.56 ± 0.72
360 K, 1199.7 kPa	490.68 ± 0.74
360 K, 1223 kPa	490.79 ± 0.74
360 K, 1246.3 kPa	490.91 ± 0.73
360 K, 1269.6 kPa	490.99 ± 0.73
360 K, 1292.9 kPa	491.01 ± 0.72
360 K, 1316.1 kPa	491.18 ± 0.72
380 K, 1759.6 kPa	454.68 ± 0.66
380 K, 1782.8 kPa	454.9 ± 0.66
380 K, 1806.1 kPa	455.09 ± 0.66
380 K, 1829.3 kPa	455.25 ± 0.67
380 K, 1852.5 kPa	455.46 ± 0.66
380 K, 1875.8 kPa	455.6 ± 0.66
380 K, 1899 kPa	455.78 ± 0.66
424 K, 3720.3 kPa	289.99 ± 1.1
424 K, 3720.4 kPa	289.82 ± 1.2
424 K, 3728.4 kPa	294.73 ± 1.1
424 K, 3737.3 kPa	298.52 ± 1.1

Conditions	mass density [kg/m3]	vapor or sublimation pressure
280 K	594.08 ± 0.95	133 ± 0.6 kPa
300 K	571.57 ± 0.91	257.5 ± 0.6 kPa
320 K	547.03 ± 0.88	456.2 ± 0.9 kPa
340 K	520.5 ± 0.83	752 ± 1.2 kPa
360 K	490.55 ± 0.78	1170.2 ± 1.8 kPa
370 K	–	1434.9 ± 2.2 kPa
380 K	454.55 ± 0.73	1739.9 ± 2.7 kPa and 1740.4 ± 2.7 kPa
390 K	–	2092.1 ± 3.3 kPa
400 K	–	2495.2 ± 3.9 kPa and 2494.6 ± 3.9 kPa
410 K	–	2955 ± 4.6 kPa
420 K	–	3482.5 ± 5.4 kPa
422 K	–	3597.5 ± 5.6 kPa
424 K	288.22 ± 1.7	3716.9 ± 5.8 kPa
